Entries after “also recorded” stand apart in the source; their conditions may differ.
Columns and labels:
Assay type in all cases: in vivo, rat
[1] = test system: food deprived Wistar rats; assay: Food intake after i.c.v. injection of melanocortin peptides
Protocol: (§1) Adult male Wistar rats (50-60 days old, 230-260 g at the beginning of the experiment) were maintained in individual cages under controlled temperature (23° C.) and reverse lighting (1000-2200 lights off). Standard laboratory chow (NZ Stockfeed Ltd) and tap water were available ad libitum during the adaptation phase. During this time animals were handled daily to minimize the effects of stress on food intake during experiments. Body weight was measured daily before, and one week after cannulation. Any animal showing signs of illness, such as weight loss, poor grooming, or decreased activity, was removed from the study. All animal procedures undertaken were approved by the Animal Ethics Committee of the University of Auckland.
(§2) After 7 days of adaptation, animals were subject to cannula placement surgery under 3% halothane/O2 anaesthesia. A permanent lateral ventricle infusion cannula (6-mm 21 gauge) was placed on top of the dura at 7.5 mm anterior from stereotaxic zero, 1.5 mm to the right of the mid-sagittal line, and secured to the skull with dental cement. Animals were allowed at least 7 days to recover from surgery before injections.
(§3) Rats were fasted overnight before the day of experiment.
Under 3% halothane/O2 anaethesia rats were infused icv through a 12-mm 27-gauge needle, connected to 20-cm length tubing attached to a syringe. Infusions were performed in the early dark phase between 1000 and 1130 hr using motor driven infusion pumps at a rate of 1.0 μl/min over 10 min. Movement of a 0.2 ml air-space introduced between the 0.9% saline solution filling the PE10 tubing-syringe system and the test solution served as an indicator of a successful infusion. […]
Following infusion, the cannula was left in place for 1 min, removed, and the animal returned to its cage with fresh pre-weighed food and water. At 3 h post-injection, the pellets and collected food spillage in the cage, were weighed and this weight was subtracted from the initial weight to quantify the amount of food eaten over 3 h.
The significance of treatment effects was evaluated using one-way ANOVA (Systat10 package)

neonatal rats = assay: Body and organ weights of neonatal rats after subcutaneous injection; settings: s.c. 0.3 μg/g body weight/day; for body weight change (growth) over 14 days vs PBS: first 14 days of life
Protocol: Adult female Wistar rats were housed in plastic cages and kept on a 12-h dark/light cycle. Animals received tap water and rat pellets ad libitum and were mated with males of the same strain. Each litter of new-born Wistar rats was culled to 9 pups per mother.
PBS or freshly prepared peptide solutions made up freshly in PBS containing 0.1% BSA were injected subcutaneously once per day in a volume of 40 μl for 14 days. Animals were injected on day 14 and 1 h later they were euthanised using sodium pentobarbital.
Rats were weighed at birth and then every 2 days prior to injection of peptides. Body weights were recorded on day 14 before injection and again when they were euthanised. The following organs were dissected and weighed: brain, heart, kidney, liver, lung, spleen.
Liner relationships between organ weights and body weights was tested using regression analysis of the organ weights measured against final body weight on day 14. There were significant linear relationships between organ weights and body weights for the following tissues: brain, spleen, heart, kidney and liver. There was no significant regression between lung weight and body weight. For those organs where their weight was linearly correlated to body weight, treatment effects on organ weight changes were analysed using ANCOVA with body weight as the co-variate.
Differences in body weight were analysed using a General Linear Model with repeated measures. Significance was assumed at the P<0.05 level.

hypothalamic proteins = assay: Hypothalamic proteome analysis after i.c.v. injection
Protocol: Alpha-MSH and desacetyl-α-MSH both couple melanocortin receptors to either adenylyl cyclase or calcium-signalling pathways in vitro. To characterise the signal transduction pathways engaged by α-MSH and desacetyl-α-MSH in vivo, rats received an intracerebroventricular (i.c.v.) injection of either phosphate buffered saline (PBS), α-MSH or desacetyl-α-MSH. Three hours later, food intake was measured and hypothalamic tissues were collected for 2D gel electrophoresis-based proteome analysis.
as §1, §2, §3
Under 3% halothane/O2 anaethesia rats were infused icv through a 12-mm 27-gauge needle, connected to 20-cm length tubing attached to a syringe. Infusions were performed in the early dark phase between 1000 and 1130 hr using motor driven infusion pumps at a rate of 1.0 μl/min over 10 min. Movement of a 0.2 ml air-space introduced between the 0.9% saline solution filling the PE10 tubing-syringe system and the test solution served as an indicator of a successful infusion. At the end of each experiment animals were euthanised by pentobarbital overdose, and cannula placement was confirmed by visual inspection of the cannula tip location within the brain ventricular system.
Only one of these proteins was common to α-MSH and desacetyl-α-MSH. A combination of Reverse-phase HPLC followed by Edman protein sequencing, and peptide mass fingerprinting technique using MALDI-TOF mass spectrometry were used to identify the proteins of interest. The proteomic data provide a snap-shot of the protein expression patterns in the hypothalamus 3 hours post i.c.v. administration of the melanocortin peptides.

[2] = hypothalamus, 3 h after i.c.v. injection, rats

For “SYSMEHFRWGKPV [desacetyl-α-MSH, non-acetylated form of α-MSH, obtained from Bachem]”, the “effect on food intake over 3 h vs PBS” value ([1]; 10 μg i.c.v., first study) was “not significantly different from the PBS treated control group”, the “effect on food intake over 3 h vs PBS” value ([1]; 10 μg i.c.v., first study, listed as Desacetyl-α-MSH) was “no significant effect on feeding” and the “effect on food intake over 3 h vs PBS” value ([1]; 50 μg i.c.v., second study) was “significantly reduce food intake; also recorded: significantly decreased food intake”. For the same sequence, the “brain weight vs PBS” value (neonatal rats; 14 days) was “significantly decreased brain weight”, the “kidney weight vs PBS” value (neonatal rats; 14 days) was “no significant effect on kidney weight” and the “spleen weight vs PBS” value (neonatal rats; 14 days) was “significantly increased spleen weight”. For the same sequence, the “body weight change (growth) over 14 days vs PBS” value (neonatal rats) was “grew significantly slower”, the “body weight change (growth) over 14 days vs PBS” value (neonatal rats; listed as Desacetyl-α-MSH) was “significantly slowed body weight change” and the “body weight catch up compared to PBS treated rats” value (neonatal rats; from day 12) was “appeared to catch up on body weight from day 12”. For the same sequence, the “number of hypothalamic proteins with expression significantly different from PBS” value (hypothalamic proteins; 3 hours post i.c.v., p<0.05) was 20, the “Cu/Zn superoxide dismutase (p1347), effect compared to control” value (hypothalamic proteins; [2]) was 1.4 fold decrease and the “Protein disulfide isomerase (p261), effect compared to control” value (hypothalamic proteins; [2]) was 1.4 fold decrease. For the same sequence, the “gamma-enolase (p1438), effect compared to control” value (hypothalamic proteins; [2]) was 1.7 fold decrease, the “glyceraldehyde-3-phosphate-dehydrogenase (p1210), effect compared to control” value (hypothalamic proteins; [2]) was 1.4 fold decrease and the “phosphatidylethanolamine binding protein (p1267), effect compared to control” value (hypothalamic proteins; [2]) was 2.5 fold decrease. The “triosephosphate isomerase (p1521), effect compared to control” value (hypothalamic proteins; [2]) was 1.4 fold decrease.
